Reference: patent US8895599B2, “Lipoprotein lipase-activating compositions comprising benzene derivates” (Otsuka Pharmaceutical Factory, Inc., priority 2008, dated 2014)

Compound	melting point
COc1cc(-c2nc3ccccn3c2C)ccc1OCc1ccccc1.Cl	241 to 243 °C
COc1cc(-c2cn3ccccc3n2)ccc1O.Cl	276 to 278 °C
COc1cc(-c2nc3sccn3c2C)ccc1OCc1ccccc1.Cl	228 to 230 °C
COc1cc(-c2nc3ccccn3c2Cl)ccc1OCc1ccccc1 [Example 2]	103 to 104 °C
COc1cc(-c2nc3ccccn3c2Br)ccc1OCc1ccccc1 [Example 3]	115 to 117 °C
COc1cc(-c2cn3ccccc3n2)ccc1OCc1ccc(F)cc1 [Example 6]	144 to 146 °C
COc1cc(-c2cn3ccccc3n2)ccc1OCc1ccc(C(F)(F)F)cc1 [Example 7]	172 to 173 °C
COc1cc(-c2cn3ccccc3n2)ccc1OCc1cc(F)ccc1C(F)(F)F [Example 8]	125 to 126 °C
COc1cc(-c2cn3ccccc3n2)ccc1OCc1ccc(C)cc1 [Example 9]	155 to 157 °C
COc1cc(-c2cnc3ccccn23)ccc1OCc1ccccc1 [Example 12, 3-(4-benzyloxy-3-methoxyphenyl)imidazo[1,2-a]pyridine]	129 to 131 °C
c1ccc(COc2ccc(-c3cn4ccccc4n3)cc2)cc1 [Example 13]	171 to 173 °C
COc1cc(-c2cn3cc(C)ccc3n2)ccc1OCc1ccccc1 [Example 15]	135 to 136 °C
COc1cc(-c2cn3ccc(C)cc3n2)ccc1OCc1ccccc1 [Example 16]	171 to 173 °C
COc1cc(-c2cn3cc(C(F)(F)F)ccc3n2)ccc1OCc1ccccc1 [Example 17]	172 to 173 °C
COc1cc(-c2cn3cc(Cl)ccc3n2)ccc1OCc1ccccc1 [Example 18]	177 to 179 °C
COc1cc(-c2nc3ccccn3c2Cl)ccc1OCc1ccc(Cl)cc1 [Example 19]	139 to 140 °C
COc1cc(-c2nc3ccccn3c2Cl)ccc1OCc1cccc(F)c1 [Example 20]	104 to 105 °C
COc1cc(-c2cn3ccccc3n2)ccc1OCc1cccc(Cl)c1 [Example 21]	114 to 115 °C
COc1cc(-c2cn3ccccc3n2)ccc1OCc1ccc(Cl)c(Cl)c1 [Example 22]	138 to 139 °C
COc1cc(-c2cn3ccsc3n2)ccc1OCc1ccccc1 [Example 24]	130 to 132 °C

Compound	melting point
COc1cc(-c2nc3ccccn3c2C)ccc1OCc1ccc(Cl)cc1 [Example 26]	114 to 115 °C
COc1cc(-c2nc3ccccn3c2C)ccc1OCc1ccc(C)cc1 [Example 27]	118 to 120 °C
COc1cc(-c2cn3cccnc3n2)ccc1OCc1ccccc1 [Example 28, 2-(4-benzyloxy-3-methoxyphenyl)imidazo[1,2-a]pyrimidine]	168 to 169 °C
COc1cc(-c2cn3cccnc3n2)ccc1OCc1ccc(Cl)cc1 [Example 29]	216 to 218 °C
COc1cc(-c2cn3ccccc3n2)ccc1OCc1ccc(Br)cc1 [Example 31]	136 to 137 °C
COc1cc(-c2cn3cc(C)ccc3n2)ccc1OCc1ccc(Cl)cc1 [Example 32]	140 to 142 °C
COc1cc(-c2cn3c(C)cccc3n2)ccc1OCc1ccccc1 [Example 33]	130 to 132 °C
COc1cc(-c2cn3cccc(C)c3n2)ccc1OCc1ccccc1 [Example 34]	99 to 100 °C
COc1ccc(COc2ccc(-c3cn4ccccc4n3)cc2OC)cc1 [Example 35]	165 to 167 °C
COc1ccc(COc2ccc(-c3cn4ccccc4n3)cc2)cc1 [Example 36]	215 to 218 °C
Clc1ccc(COc2ccc(-c3cn4ccccc4n3)cc2)cc1 [Example 37]	229 to 231 °C
COc1cc(-c2cn3ccccc3n2)ccc1OCc1ccc([N+](=O)[O-])cc1 [Example 38]	197 to 200 °C
Cc1cc(-c2cn3ccccc3n2)ccc1OCc1ccccc1 [Example 39]	123 to 124 °C
O=C(O)c1cc(-c2cn3ccccc3n2)ccc1OCc1ccccc1 [Example 40]	239 to 240 °C
COc1cc(-c2cn3ccccc3n2)cc(OC)c1OCc1ccccc1 [Example 41]	154 to 155 °C
COc1cc(-c2cn3ccsc3n2)ccc1OCc1ccc(Br)cc1 [Example 42]	134 to 136 °C
COc1cc(-c2cn3cc(C)sc3n2)ccc1OCc1ccc(Cl)cc1 [Example 43]	156 to 158 °C
COc1cc(-c2cn3cc(C(=O)O)ccc3n2)ccc1OCc1ccc(C#N)cc1 [Example 44]	242 to 243 °C
COc1cc(-c2cn3cc(C(=O)O)ccc3n2)ccc1OCc1ccc(Cl)cc1 [Example 45]	251 to 253 °C
COC(=O)c1ccc2nc(-c3ccc(OCc4ccc(Cl)cc4)c(OC)c3)cn2c1 [Example 46]	182 to 183 °C

Compound	melting point
COC(=O)c1cc(-c2cn3ccccc3n2)ccc1OCc1ccccc1 [Example 47]	179 to 181 °C
COc1cc(-c2cn3ccsc3n2)ccc1OCc1ccc(C#N)cc1 [Example 48]	179 to 181 °C
COc1cc(-c2cn3ccsc3n2)ccc1OCc1ccc([N+](=O)[O-])cc1 [Example 49]	189 to 191 °C
COC(=O)c1ccc(COc2ccc(-c3cn4ccccc4n3)cc2OC)cc1 [Example 50]	125 to 126 °C
COc1cc(-c2cn3ccccc3n2)ccc1OCc1ccc(C(=O)O)cc1 [Example 51]	245 to 247 °C
COc1cc(-c2cn3cc(Cl)cc(Cl)c3n2)ccc1OCc1ccccc1 [Example 52]	163 to 165 °C
COc1cc(-c2cn3cc(C(F)(F)F)cc(Cl)c3n2)ccc1OCc1ccccc1 [Example 53]	155 to 156 °C
COc1cc(-c2cn3cccc(O)c3n2)ccc1OCc1ccccc1 [Example 54]	187 to 189 °C
COc1cc(-c2cn3cccc(OCc4ccccc4)c3n2)ccc1OCc1ccccc1 [Example 55]	140 to 141 °C
COc1cc(-c2cn3cc(C)ccc3n2)ccc1OCc1ccc(Br)cc1 [Example 56]	155 to 157 °C
COc1cc(-c2cn3cc(C)ccc3n2)ccc1OCc1ccc(C#N)cc1 [Example 57]	168 to 169 °C
Oc1cc(-c2cn3ccccc3n2)ccc1OCc1ccccc1 [Example 59]	169 to 171 °C
CCOc1cc(-c2cn3ccccc3n2)ccc1OCc1ccccc1 [Example 60]	157 to 158 °C
CCCOc1cc(-c2cn3ccccc3n2)ccc1OCc1ccccc1 [Example 61]	126 to 127 °C
c1ccc(COc2ccc(-c3cn4ccccc4n3)cc2OCc2ccccc2)cc1 [Example 62]	122 to 124 °C
COc1cc(-c2cn3cc(C)cc(Br)c3n2)ccc1OCc1ccccc1 [Example 63]	136 to 137 °C
COc1cc(-c2cn3cc(C)cc(Br)c3n2)ccc1OCc1ccc(Cl)cc1 [Example 64]	136 to 138 °C
COc1cc(-c2cn3cc(C)cc(Br)c3n2)ccc1OCc1ccc(C#N)cc1 [Example 65]	175 to 176 °C
COc1cc(-c2cn3cc(Br)ccc3n2)ccc1OCc1ccccc1 [Example 66]	175 to 176 °C
Oc1cc(-c2cn3ccccc3n2)ccc1OCc1ccc(Cl)cc1 [Example 67]	206 to 208 °C
